Read-outs that look alike come from different tables or passages of the source. Positions of bridges follow the written chain, without caps; N, C: chain ends. Residues, ends and D or L forms follow the SMILES beside them. Chains are numbered I, II in the order given. *: point of attachment. X5 = Cc1cc(NC(=O)CCC(=O)O)ccc1-c1cc(CN2CCN(CC(=O)O)CCN(CC(=O)O)CCN(CC(=O)O)CC2)nc(C(=O)*)c1; X2 = CC(=O)Nc1ccc(-c2cc(CN3CCN(CC(=O)O)CCN(CC(=O)O)CCN(CC(=O)O)CC3)nc(C(=O)*)c2)c(C)c1; X4 = Cc1cc(NC(=O)CCN)ccc1-c1cc(CN2CCN(CC(=O)O)CCN(CC(=O)O)CCN(CC(=O)O)CC2)nc(C(=O)*)c1; X1 = CC(=O)Nc1ccc(-c2cc(CN3CCN(CC(=O)O)CCN(CC(=O)O)CCN(CC(=O)O)CC3)nc(C(=O)*)c2)cc1; X3 = COc1ccc(-c2cc(CN3CCN(CC(=O)O)CCN(CC(=O)O)CCN(CC(=O)O)CC3)nc(C(=O)*)c2)c(C)c1
Key:
[1] = system: HeLa cells; assay: MTT proliferation assay (cytotoxicity)
[2] = system: HEK293T cells; assay: Two-photon microscopy (2PM) imaging of live cells: internalization and cytosolic delivery; format: cell-based; details: 1 h, 10 μM
Experimental: (§1) Fig. 7 2PM imaging (λex = 720 nm) of living HEK293T (A) and MRC5 (B) cells incubated 1 h with dTAT[Eu·L-Ar-NHAc] (10 μM) in RPMI medium. Top: DIC, emission recorded using a 465–680 nm bp filter and merge; Bottom: linear unmixing of autofluorescence (AF) and Eu^3+ emission and merge. Scale bars correspond to 10 μm. […]
(§2) dependence for each sample (Fig. S9), the incident power was adjusted to 35 mW to characterize the two-photon absorption spectra. Calibration of the 2P absorption spectra was performed at each excitation wavelength by comparison with that of fluorescein (10 µM, pH 11) as reference compound.[12]
(§3) General: HeLa, MRC5 and HEK293 cell lines were purchased from the ATCC and agreed by French ethic boards […]
(§4) Cell culture: HeLa cells were grown in RPMI medium supplemented with 10% fetal bovine serum (v/v) at 37°C in a 5% CO2 humidified atmosphere.
(§5) Peptides delivery in live cells: HeLa cells were seeded at 3´10^4 cells/well onto an 8-chamber Labtek-I coverglass system.
(§6) After 24 h, cells were washed three times with PBS. Cells were incubated with dTAT [Ln·L] (10 µM) in RPMI medium (without phenol red and without serum) or PBS at 37°C for 1 h. […]
(§7) Temporal Sampling Lifetime Imaging Microscopy (TSLIM) was used to record luminescence lifetime decay in cells (single pulsed excitation with the 7.56 μs temporal resolution).[13] […]

[3] = system: MRC5 cells; assay: as above; format: cell-based; details: 1 h, 10 μM
Experimental: as §1, §2, §3, §4, §5, §6, §7

[4] = system: HeLa cells; assay: as above; format: cell-based; details: for co-internalization of a Tb3+/Eu3+ probe mixture: 1 h, Tb probe 10 μM + dTAT[Eu·L-Ar-NHAc] 5 μM; for co-internalization of a Tb3+/Eu3+ probe mixture / cytosolic delivery (diffuse Ln3+ emission): 2P excitation 720 nm; for cytosolic delivery (diffuse Ln3+ emission): 10 μM
[5] = live HeLa cells, 1 h incubation
[6] = read-out: IC50 (concentration causing a 50% reduction in proliferation), MTT proliferation assay, 2 h incubation

Compound	co-internalization of a Tb3+/Eu3+ probe mixture ([4]; HeLa cells)	cytosolic delivery (diffuse Ln3+ emission) [4, 5]	IC50 [1, 6] [µM]	further results
CC(=O)Nc1ccc(-c2cc(CN3CCN(CC(=O)O)CCN(CC(=O)O)CCN(CC(=O)O)CC3)nc(C(=O)NCCCC[C@H](NC(=O)[C@@H](N)CSSC[C@H](N)C(=O)N[C@@H](CCCCNC(=O)c3cc(-c4ccc(NC(C)=O)cc4)cc(CN4CCN(CC(=O)O)CCN(CC(=O)O)CCN(CC(=O)O)CC4)n3)C(=O)N[C@@H](CCCNC(=N)N)C(=O)N[C@@H](CCCCN)C(=O)N[C@@H](CCCCN)C(=O)N[C@@H](CCCNC(=N)N)C(=O)N[C@@H](CCCNC(=N)N)C(=O)N[C@@H](CCC(N)=O)C(=O)N[C@@H](CCCNC(=N)N)C(=O)N[C@@H](CCCNC(=N)N)C(=O)N[C@@H](CCCNC(=N)N)C(=O)NCC(N)=O)C(=O)N[C@@H](CCCNC(=N)N)C(=O)N[C@@H](CCCCN)C(=O)N[C@@H](CCCCN)C(=O)N[C@@H](CCCNC(=N)N)C(=O)N[C@@H](CCCNC(=N)N)C(=O)N[C@@H](CCC(N)=O)C(=O)N[C@@H](CCCNC(=N)N)C(=O)N[C@@H](CCCNC(=N)N)C(=O)N[C@@H](CCCNC(=N)N)C(=O)NCC(N)=O)c2)cc1 [dTAT[Eu·L-Ar-NHAc]] (I: H-CK(X1)RKKRRQRRRG-NH2 / II: H-CK(X1)RKKRRQRRRG-NH2; disulfide I:1-II:1; N-terminus assumed)	co-internalized	cytosolic delivery	–	toxicity at the concentration used for 2PM ([1]; MTT assay, 10 μM): no toxicity; cytosolic delivery (diffuse Eu3+ localization) [2]: successful cytosolic delivery; cytosolic delivery (diffuse Eu3+ localization) [3]: successful cytosolic delivery; number of cells showing cytosolic staining (diffuse Eu3+ emission) ([4]; HeLa cells, 5 μM, 1 h incubation, over 6 hours after washing, determined visually): 34–38%; cell staining pattern at low concentration ([4]; live HeLa cells, 2.5 μM, 1 h incubation): only show punctate Eu^3+ around the nucleus
CC(=O)Nc1ccc(-c2cc(CN3CCN(CC(=O)O)CCN(CC(=O)O)CCN(CC(=O)O)CC3)nc(C(=O)NCCCC[C@H](NC(=O)[C@@H](N)CSSC[C@H](N)C(=O)N[C@@H](CCCCNC(=O)c3cc(-c4ccc(NC(C)=O)cc4C)cc(CN4CCN(CC(=O)O)CCN(CC(=O)O)CCN(CC(=O)O)CC4)n3)C(=O)N[C@@H](CCCNC(=N)N)C(=O)N[C@@H](CCCCN)C(=O)N[C@@H](CCCCN)C(=O)N[C@@H](CCCNC(=N)N)C(=O)N[C@@H](CCCNC(=N)N)C(=O)N[C@@H](CCC(N)=O)C(=O)N[C@@H](CCCNC(=N)N)C(=O)N[C@@H](CCCNC(=N)N)C(=O)N[C@@H](CCCNC(=N)N)C(=O)NCC(N)=O)C(=O)N[C@@H](CCCNC(=N)N)C(=O)N[C@@H](CCCCN)C(=O)N[C@@H](CCCCN)C(=O)N[C@@H](CCCNC(=N)N)C(=O)N[C@@H](CCCNC(=N)N)C(=O)N[C@@H](CCC(N)=O)C(=O)N[C@@H](CCCNC(=N)N)C(=O)N[C@@H](CCCNC(=N)N)C(=O)N[C@@H](CCCNC(=N)N)C(=O)NCC(N)=O)c2)c(C)c1 [dTAT[Tb·L-^MeAr-NHAc]] (I: H-CK(X2)RKKRRQRRRG-NH2 / II: H-CK(X2)RKKRRQRRRG-NH2; disulfide I:1-II:1)	–	cytosolic delivery	7.6 ± 1.6	IC50 ([1]; read-out: IC50 (concentration causing a 50% reduction in proliferation), MTT proliferation assay, 2 h incubation, listed as dTAT[Tb·L-^MeAr-HNAc]): < 10 µM
Cc1cc(NC(=O)CCC(=O)O)ccc1-c1cc(CN2CCN(CC(=O)O)CCN(CC(=O)O)CCN(CC(=O)O)CC2)nc(C(=O)NCCCC[C@H](NC(=O)[C@@H](N)CSSC[C@H](N)C(=O)N[C@@H](CCCCNC(=O)c2cc(-c3ccc(NC(=O)CCC(=O)O)cc3C)cc(CN3CCN(CC(=O)O)CCN(CC(=O)O)CCN(CC(=O)O)CC3)n2)C(=O)N[C@@H](CCCNC(=N)N)C(=O)N[C@@H](CCCCN)C(=O)N[C@@H](CCCCN)C(=O)N[C@@H](CCCNC(=N)N)C(=O)N[C@@H](CCCNC(=N)N)C(=O)N[C@@H](CCC(N)=O)C(=O)N[C@@H](CCCNC(=N)N)C(=O)N[C@@H](CCCNC(=N)N)C(=O)N[C@@H](CCCNC(=N)N)C(=O)NCC(N)=O)C(=O)N[C@@H](CCCNC(=N)N)C(=O)N[C@@H](CCCCN)C(=O)N[C@@H](CCCCN)C(=O)N[C@@H](CCCNC(=N)N)C(=O)N[C@@H](CCCNC(=N)N)C(=O)N[C@@H](CCC(N)=O)C(=O)N[C@@H](CCCNC(=N)N)C(=O)N[C@@H](CCCNC(=N)N)C(=O)N[C@@H](CCCNC(=N)N)C(=O)NCC(N)=O)c1 [dTAT[Tb·L-^MeAr-NHSuc(−)]] (I: H-CK(X5)RKKRRQRRRG-NH2 / II: H-CK(X5)RKKRRQRRRG-NH2; disulfide I:1-II:1)	–	efficiently delivered to the cytosol	–	–
Cc1cc(NC(=O)CCN)ccc1-c1cc(CN2CCN(CC(=O)O)CCN(CC(=O)O)CCN(CC(=O)O)CC2)nc(C(=O)NCCCC[C@H](NC(=O)[C@@H](N)CSSC[C@H](N)C(=O)N[C@@H](CCCCNC(=O)c2cc(-c3ccc(NC(=O)CCN)cc3C)cc(CN3CCN(CC(=O)O)CCN(CC(=O)O)CCN(CC(=O)O)CC3)n2)C(=O)N[C@@H](CCCNC(=N)N)C(=O)N[C@@H](CCCCN)C(=O)N[C@@H](CCCCN)C(=O)N[C@@H](CCCNC(=N)N)C(=O)N[C@@H](CCCNC(=N)N)C(=O)N[C@@H](CCC(N)=O)C(=O)N[C@@H](CCCNC(=N)N)C(=O)N[C@@H](CCCNC(=N)N)C(=O)N[C@@H](CCCNC(=N)N)C(=O)NCC(N)=O)C(=O)N[C@@H](CCCNC(=N)N)C(=O)N[C@@H](CCCCN)C(=O)N[C@@H](CCCCN)C(=O)N[C@@H](CCCNC(=N)N)C(=O)N[C@@H](CCCNC(=N)N)C(=O)N[C@@H](CCC(N)=O)C(=O)N[C@@H](CCCNC(=N)N)C(=O)N[C@@H](CCCNC(=N)N)C(=O)N[C@@H](CCCNC(=N)N)C(=O)NCC(N)=O)c1 [dTAT[Tb·L-^MeAr-NHβAla(+)]] (I: H-CK(X4)RKKRRQRRRG-NH2 / II: H-CK(X4)RKKRRQRRRG-NH2; disulfide I:1-II:1)	co-internalized	efficiently delivered to the cytosol	–	–
COc1ccc(-c2cc(CN3CCN(CC(=O)O)CCN(CC(=O)O)CCN(CC(=O)O)CC3)nc(C(=O)NCCCC[C@H](NC(=O)[C@@H](N)CSSC[C@H](N)C(=O)N[C@@H](CCCCNC(=O)c3cc(-c4ccc(OC)cc4C)cc(CN4CCN(CC(=O)O)CCN(CC(=O)O)CCN(CC(=O)O)CC4)n3)C(=O)N[C@@H](CCCNC(=N)N)C(=O)N[C@@H](CCCCN)C(=O)N[C@@H](CCCCN)C(=O)N[C@@H](CCCNC(=N)N)C(=O)N[C@@H](CCCNC(=N)N)C(=O)N[C@@H](CCC(N)=O)C(=O)N[C@@H](CCCNC(=N)N)C(=O)N[C@@H](CCCNC(=N)N)C(=O)N[C@@H](CCCNC(=N)N)C(=O)NCC(N)=O)C(=O)N[C@@H](CCCNC(=N)N)C(=O)N[C@@H](CCCCN)C(=O)N[C@@H](CCCCN)C(=O)N[C@@H](CCCNC(=N)N)C(=O)N[C@@H](CCCNC(=N)N)C(=O)N[C@@H](CCC(N)=O)C(=O)N[C@@H](CCCNC(=N)N)C(=O)N[C@@H](CCCNC(=N)N)C(=O)N[C@@H](CCCNC(=N)N)C(=O)NCC(N)=O)c2)c(C)c1 [dTAT[Tb·L-^MeAr-OMe]] (I: H-CK(X3)RKKRRQRRRG-NH2 / II: H-CK(X3)RKKRRQRRRG-NH2; disulfide I:1-II:1)	–	successful cytosolic delivery	18 ± 3	–

From PMC11206396 (Chemical Science, 2024)
